{"source": "paper PMC5218480", "about": "(PLoS ONE, 2017)", "tested_on": "MV-4-11 cells", "test": "Gene expression microarray analysis (Affymetrix PrimeView) and GSEA", "type": "cell-based, human", "parameters": "RFU PODN (11730768_x_at) / Fold change /veh PODN (11730768_x_at) / RFU LINC00158 (11744669_a_at) / Fold change /veh LINC00158 (11744669_a_at) / RFU DUSP10 (11751237_a_at) / Fold change /veh DUSP10 (11751237_a_at) / RFU ID3 (11757404_x_at) / Fold change /veh ID3 (11757404_x_at) / RFU PLEKHG5 (11737974_s_at) / Fold change /veh PLEKHG5 (11737974_s_at) / RFU LRRC4B (11730491_at) / Fold change /veh LRRC4B (11730491_at) / RFU GIMAP4 (11747438_a_at) / Fold change /veh GIMAP4 (11747438_a_at) / RFU KRT8 (11758183_x_at) / Fold change /veh KRT8 (11758183_x_at) / RFU CNN1 (11734310_a_at) / Fold change /veh CNN1 (11734310_a_at) / RFU VPS37D (11726825_at) / Fold change /veh VPS37D (11726825_at) / RFU C10orf10 (11716522_x_at) / Fold change /veh C10orf10 (11716522_x_at) / RFU KIR2DL2 /// KIR2DL4 /// KIR2DL5A /// KIR2DL5B /// KIR2DS1 /// KIR2DS2 /// KIR2DS3 /// KIR2DS4 /// KIR3DL3 /// KIR3DL3 /// KIR3DS1 (11738374_at) / Fold change /veh KIR2DL2 /// KIR2DL4 /// KIR2DL5A /// KIR2DL5B /// KIR2DS1 /// KIR2DS2 /// KIR2DS3 /// KIR2DS4 /// KIR3DL3 /// KIR3DL3 /// KIR3DS1 (11738374_at) / RFU C1QL1 (11718748_at) / Fold change /veh C1QL1 (11718748_at) / RFU TMPRSS4 (11747572_a_at) / Fold change /veh TMPRSS4 (11747572_a_at) / RFU HAMP (11756126_x_at) / Fold change /veh HAMP (11756126_x_at) / RFU RNFT2 (11725882_a_at) / Fold change /veh RNFT2 (11725882_a_at) / RFU NR4A2 (11747474_a_at) / Fold change /veh NR4A2 (11747474_a_at) / RFU ABCC12 (11746883_a_at) / Fold change /veh ABCC12 (11746883_a_at) / RFU TMEM136 (11760407_x_at) / Fold change /veh TMEM136 (11760407_x_at) / RFU CLDN22 /// WWC2 (11732394_at) / Fold change /veh CLDN22 /// WWC2 (11732394_at) / RFU HLA-DPB1 (11760878_x_at) / Fold change /veh HLA-DPB1 (11760878_x_at) / RFU SPINT1 (11716480_a_at) / Fold change /veh SPINT1 (11716480_a_at) / RFU GAP43 (11754022_s_at) / Fold change /veh GAP43 (11754022_s_at) / RFU A4GNT (11735810_at) / Fold change /veh A4GNT (11735810_at) / RFU PRB3 (11715151_x_at) / Fold change /veh PRB3 (11715151_x_at) / RFU TUBB4B (11761932_at) / Fold change /veh TUBB4B (11761932_at) / RFU CAPN14 (11732068_a_at) / Fold change /veh CAPN14 (11732068_a_at) / RFU TMCC2 (11721928_a_at) / Fold change /veh TMCC2 (11721928_a_at) / RFU IRGQ (11745062_a_at) / Fold change /veh IRGQ (11745062_a_at) / RFU FAM174B (11720279_a_at) / Fold change /veh FAM174B (11720279_a_at) / RFU TMPRSS4 (11748680_a_at) / Fold change /veh TMPRSS4 (11748680_a_at) / RFU FAM212B (11763350_a_at) / Fold change /veh FAM212B (11763350_a_at) / RFU PLEKHG5 (11743358_a_at) / Fold change /veh PLEKHG5 (11743358_a_at) / RFU ZSCAN30 (11745921_a_at) / Fold change /veh ZSCAN30 (11745921_a_at) / RFU CMKLR1 (11741424_a_at) / Fold change /veh CMKLR1 (11741424_a_at) / RFU LOC101060620 /// MAPK8IP1 (11723275_at) / Fold change /veh LOC101060620 /// MAPK8IP1 (11723275_at) / RFU SPTSSB (11747773_x_at) / Fold change /veh SPTSSB (11747773_x_at) / RFU PRSS12 (11739890_at) / Fold change /veh PRSS12 (11739890_at) / RFU BIN1 (11741810_x_at) / Fold change /veh BIN1 (11741810_x_at) / RFU WNT11 (11732464_a_at) / Fold change /veh WNT11 (11732464_a_at) / RFU C10orf10 (11716521_a_at) / Fold change /veh C10orf10 (11716521_a_at) / RFU C5orf56 (11738089_at) / Fold change /veh C5orf56 (11738089_at) / RFU CYB561 (11721691_x_at) / Fold change /veh CYB561 (11721691_x_at) / RFU ANKRD19P (11752326_a_at) / Fold change /veh ANKRD19P (11752326_a_at) / RFU OR2T12 /// OR2T33 /// OR2T8 (11738714_s_at) / Fold change /veh OR2T12 /// OR2T33 /// OR2T8 (11738714_s_at) / RFU VCAN (11748164_a_at) / Fold change /veh VCAN (11748164_a_at) / RFU JSRP1 (11732532_at) / Fold change /veh JSRP1 (11732532_at) / RFU KRTAP10-11 (11738290_x_at) / Fold change /veh KRTAP10-11 (11738290_x_at) / RFU MYO3A (11730013_a_at) / Fold change /veh MYO3A (11730013_a_at) / RFU EBF3 (11725865_a_at) / Fold change /veh EBF3 (11725865_a_at) / RFU CAMK2N1 (11719241_x_at) / Fold change /veh CAMK2N1 (11719241_x_at) / RFU C5orf56 (11738088_a_at) / Fold change /veh C5orf56 (11738088_a_at) / RFU OLFML3 (11715873_a_at) / Fold change /veh OLFML3 (11715873_a_at) / RFU LOC100653217 /// NTM (11731650_a_at) / Fold change /veh LOC100653217 /// NTM (11731650_a_at) / RFU MAPK11 (11762145_a_at) / Fold change /veh MAPK11 (11762145_a_at) / RFU FIZ1 (11724087_x_at) / Fold change /veh FIZ1 (11724087_x_at) / RFU OASL (11726364_x_at) / Fold change /veh OASL (11726364_x_at) / RFU SOX15 (11748057_x_at) / Fold change /veh SOX15 (11748057_x_at) / RFU CD79A (11719716_a_at) / Fold change /veh CD79A (11719716_a_at) / RFU HIST1H1D (11736915_at) / Fold change /veh HIST1H1D (11736915_at) / RFU CASKIN2 (11723855_a_at) / Fold change /veh CASKIN2 (11723855_a_at) / RFU LOC730098 (11760151_x_at) / Fold change /veh LOC730098 (11760151_x_at) / RFU OR4N2 (11742367_at) / Fold change /veh OR4N2 (11742367_at) / RFU PRRT2 (11749266_a_at) / Fold change /veh PRRT2 (11749266_a_at) / RFU SNX32 (11753110_a_at) / Fold change /veh SNX32 (11753110_a_at) / RFU CDHR5 (11726645_a_at) / Fold change /veh CDHR5 (11726645_a_at) / RFU RCAN1 (11760418_a_at) / Fold change /veh RCAN1 (11760418_a_at) / RFU FAM167A (11723789_a_at) / Fold change /veh FAM167A (11723789_a_at) / RFU FAM26E (11764081_at) / Fold change /veh FAM26E (11764081_at) / RFU ISYNA1 (11749810_s_at) / Fold change /veh ISYNA1 (11749810_s_at) / RFU ACY1 (11761880_at) / Fold change /veh ACY1 (11761880_at) / RFU 11764098_at / Fold change /veh 11764098_at / RFU SAMD14 (11745864_x_at) / Fold change /veh SAMD14 (11745864_x_at) / RFU NPB (11741838_a_at) / Fold change /veh NPB (11741838_a_at) / RFU TMPRSS6 (11731388_a_at) / Fold change /veh TMPRSS6 (11731388_a_at) / RFU KRTAP10-2 (11738614_at) / Fold change /veh KRTAP10-2 (11738614_at) / RFU ARHGAP8 /// PRR5-ARHGAP8 (11727945_x_at) / Fold change /veh ARHGAP8 /// PRR5-ARHGAP8 (11727945_x_at) / RFU KRTAP5-7 /// NADSYN1 (11734609_at) / Fold change /veh KRTAP5-7 /// NADSYN1 (11734609_at) / RFU RASL12 (11751679_a_at) / Fold change /veh RASL12 (11751679_a_at) / RFU CDKN2B (11736163_a_at) / Fold change /veh CDKN2B (11736163_a_at) / RFU PRF1 (11729649_at) / Fold change /veh PRF1 (11729649_at) / RFU, ZNF638 /// ZNF638-IT1 / Fold change vs veh, ZNF638 /// ZNF638-IT1 / RFU, PANK3 / Fold change vs veh, PANK3 / RFU, SH3YL1 / Fold change vs veh, SH3YL1 / RFU, ZEB2 / Fold change vs veh, ZEB2 / RFU, NRIP1 / Fold change vs veh, NRIP1 / RFU, PTTG1IP / Fold change vs veh, PTTG1IP / RFU, CAPN2 / Fold change vs veh, CAPN2 / RFU, MED14 / Fold change vs veh, MED14 / RFU, SNORA58 / Fold change vs veh, SNORA58 / RFU, C1orf63 / Fold change vs veh, C1orf63 / RFU, LRRFIP1 / Fold change vs veh, LRRFIP1 / RFU, NDUFAF7 / Fold change vs veh, NDUFAF7 / RFU, SLC12A2 / Fold change vs veh, SLC12A2 / RFU, IBTK / Fold change vs veh, IBTK / RFU, ESF1 / Fold change vs veh, ESF1 / Fold change vs veh, TMEM50B / RFU, TAOK1 / Fold change vs veh, TAOK1 / RFU, ACBD3 / Fold change vs veh, ACBD3 / RFU, TMA16 / Fold change vs veh, TMA16 / RFU, RWDD3 / Fold change vs veh, RWDD3 / RFU, BCAT1 / Fold change vs veh, BCAT1 / RFU, EDEM3 / Fold change vs veh, EDEM3 / RFU, TMEM33 / Fold change vs veh, TMEM33 / RFU, WDR75 / Fold change vs veh, WDR75 / RFU, AHCTF1 / Fold change vs veh, AHCTF1 / RFU, TFRC / Fold change vs veh, TFRC / RFU, ZDHHC17 / Fold change vs veh, ZDHHC17 / RFU, NOM1 / Fold change vs veh, NOM1 / RFU, ARL8B / Fold change vs veh, ARL8B / RFU, ZBTB11 / Fold change vs veh, ZBTB11 / RFU, TAMM41 / Fold change vs veh, TAMM41 / RFU, KIAA1704 /// LOC100996395 / Fold change vs veh, KIAA1704 /// LOC100996395 / RFU, ING1 / Fold change vs veh, ING1 / RFU, TRMT61B / Fold change vs veh, TRMT61B / RFU, FUBP3 / Fold change vs veh, FUBP3 / RFU, TP53 / Fold change vs veh, TP53 / RFU, TNKS2 / Fold change vs veh, TNKS2 / RFU, ZFP14 / Fold change vs veh, ZFP14 / RFU, ACTR2 / Fold change vs veh, ACTR2 / RFU, PPP3R1 / Fold change vs veh, PPP3R1 / RFU, PIK3R1 / Fold change vs veh, PIK3R1 / RFU, HNRNPA1 / Fold change vs veh, HNRNPA1 / RFU, RNF170 / Fold change vs veh, RNF170 / RFU, ZNF28 / Fold change vs veh, ZNF28 / RFU, RNGTT / Fold change vs veh, RNGTT / RFU, OGT / Fold change vs veh, OGT / RFU, BRD1 / Fold change vs veh, BRD1 / RFU, MARS / Fold change vs veh, MARS / RFU, ZNF655 / Fold change vs veh, ZNF655 / RFU, FAHD1 / Fold change vs veh, FAHD1 / RFU, BDP1 / Fold change vs veh, BDP1 / RFU, LRRCC1 / Fold change vs veh, LRRCC1 / RFU, ARID1A / Fold change vs veh, ARID1A / RFU, ZNF146 / Fold change vs veh, ZNF146 / RFU, ZNF330 / Fold change vs veh, ZNF330 / RFU, GPN3 / Fold change vs veh, GPN3 / RFU, C9orf123 / Fold change vs veh, C9orf123 / RFU, N4BP2L2 / Fold change vs veh, N4BP2L2 / RFU, ARFIP1 / Fold change vs veh, ARFIP1 / RFU, FAM179B / Fold change vs veh, FAM179B / RFU, BCL10 / Fold change vs veh, BCL10 / RFU, UHRF1BP1L / Fold change vs veh, UHRF1BP1L / RFU, BET1 / Fold change vs veh, BET1 / RFU, CNOT2 / Fold change vs veh, CNOT2 / RFU, ZNF268 / Fold change vs veh, ZNF268 / Fold change vs veh, ZNF507 / RFU, DGCR2 / Fold change vs veh, DGCR2 / RFU, WDSUB1 / Fold change vs veh, WDSUB1 / Fold change vs veh, HSP90B1 /// MIR3652 / RFU, ADSS / Fold change vs veh, ADSS / RFU, GK / Fold change vs veh, GK / RFU, ZNF148 / Fold change vs veh, ZNF148 / RFU, TAF9 / Fold change vs veh, TAF9 / RFU, SLC1A5 / Fold change vs veh, SLC1A5 / RFU, SLMO2 / Fold change vs veh, SLMO2 / RFU, ABCC4 / Fold change vs veh, ABCC4 / RFU, LOC101060439 /// RAP1B / Fold change vs veh, LOC101060439 /// RAP1B / RFU, RFX7 / Fold change vs veh, RFX7 / RFU, GTPBP10 / Fold change vs veh, GTPBP10 / RFU, CNEP1R1 / Fold change vs veh, CNEP1R1 / RFU, BIVM-ERCC5 /// ERCC5 / Fold change vs veh, BIVM-ERCC5 /// ERCC5 / RFU, ILF3 / Fold change vs veh, ILF3 / RFU 11762660_at / Fold change /veh 11762660_at / RFU VCAN (11757783_s_at) / Fold change /veh VCAN (11757783_s_at) / RFU DDX43 (11728927_at) / Fold change /veh DDX43 (11728927_at) / RFU KRT8 (11758188_x_at) / Fold change /veh KRT8 (11758188_x_at) / RFU NKD1 (11759106_at) / Fold change /veh NKD1 (11759106_at) / RFU SRD5A1 (11742802_a_at) / Fold change /veh SRD5A1 (11742802_a_at) / RFU TPSAB1 /// TPSB2 (11721975_s_at) / Fold change /veh TPSAB1 /// TPSB2 (11721975_s_at) / RFU GSTM3 (11746129_a_at) / Fold change /veh GSTM3 (11746129_a_at) / RFU IL23R (11737362_x_at) / Fold change /veh IL23R (11737362_x_at) / RFU TMEM51 (11727254_a_at) / Fold change /veh TMEM51 (11727254_a_at) / RFU PIWIL2 (11732686_x_at) / Fold change /veh PIWIL2 (11732686_x_at) / RFU ORM1 (11744905_x_at) / Fold change /veh ORM1 (11744905_x_at) / RFU CCDC152 (11743942_at) / Fold change /veh CCDC152 (11743942_at) / RFU ECM1 (11717891_a_at) / Fold change /veh ECM1 (11717891_a_at) / RFU IL23R (11748794_a_at) / Fold change /veh IL23R (11748794_a_at) / RFU TNFAIP8L3 (11732012_x_at) / Fold change /veh TNFAIP8L3 (11732012_x_at) / RFU MBOAT4 (11741988_at) / Fold change /veh MBOAT4 (11741988_at) / RFU 11764193_at / Fold change /veh 11764193_at / RFU TMEM53 (11763286_at) / Fold change /veh TMEM53 (11763286_at) / RFU MAGEB2 (11727129_at) / Fold change /veh MAGEB2 (11727129_at) / RFU TMEM200A (11744735_a_at) / Fold change /veh TMEM200A (11744735_a_at) / RFU CCDC152 (11751479_a_at) / Fold change /veh CCDC152 (11751479_a_at) / RFU FAM211A (11726209_a_at) / Fold change /veh FAM211A (11726209_a_at) / RFU RGS16 (11746705_a_at) / Fold change /veh RGS16 (11746705_a_at) / RFU VCAN (11755009_s_at) / Fold change /veh VCAN (11755009_s_at) / RFU RHOB (11743442_s_at) / Fold change /veh RHOB (11743442_s_at) / RFU RGS16 (11720943_a_at) / Fold change /veh RGS16 (11720943_a_at) / RFU RGS16 (11720944_at) / Fold change /veh RGS16 (11720944_at) / RFU, VPS4B / Fold change vs veh, VPS4B / RFU, CREB1 / Fold change vs veh, CREB1 / RFU, DNAJC13 / Fold change vs veh, DNAJC13 / RFU, GNAQ / Fold change vs veh, GNAQ / RFU, CDK5R1 / Fold change vs veh, CDK5R1 / RFU, ZRANB3 / Fold change vs veh, ZRANB3 / RFU, CUL4A / Fold change vs veh, CUL4A / RFU, CCNY / Fold change vs veh, CCNY / RFU, UFL1 / Fold change vs veh, UFL1 / RFU, COG3 / Fold change vs veh, COG3 / RFU, DIAPH2 / Fold change vs veh, DIAPH2 / RFU, SKA2 / Fold change vs veh, SKA2 / RFU, AFF3 / Fold change vs veh, AFF3 / RFU, LMF1 / Fold change vs veh, LMF1 / RFU, IPO11 / Fold change vs veh, IPO11 / RFU, DFFB / Fold change vs veh, DFFB / RFU, FOXP1 / Fold change vs veh, FOXP1 / RFU, CARD8 / Fold change vs veh, CARD8 / RFU, STRN3 / Fold change vs veh, STRN3 / RFU, ADK / Fold change vs veh, ADK / RFU, RASSF2 / Fold change vs veh, RASSF2 / RFU, WIPF1 / Fold change vs veh, WIPF1 / RFU, LARP1B / Fold change vs veh, LARP1B / RFU, RASA1 / Fold change vs veh, RASA1 / RFU, RB1 / Fold change vs veh, RB1 / RFU, PPFIA1 / Fold change vs veh, PPFIA1 / RFU, MAT2A / Fold change vs veh, MAT2A / RFU, CCT5 / Fold change vs veh, CCT5 / RFU, WDR92 / Fold change vs veh, WDR92 / RFU, CUX1 / Fold change vs veh, CUX1 / RFU, TTC7A / Fold change vs veh, TTC7A / RFU, TMEM135 / Fold change vs veh, TMEM135 / RFU, DEPTOR / Fold change vs veh, DEPTOR / RFU, CPM / Fold change vs veh, CPM / RFU, DNAJB6 / Fold change vs veh, DNAJB6 / RFU, CACNA2D3 / Fold change vs veh, CACNA2D3 / RFU, DTX4 / Fold change vs veh, DTX4 / RFU, TFCP2 / Fold change vs veh, TFCP2 / RFU, GMCL1 /// GMCL1P1 / Fold change vs veh, GMCL1 /// GMCL1P1 / RFU, AEBP2 / Fold change vs veh, AEBP2 / RFU, SNHG1 /// SNORD22 /// SNORD25 /// SNORD26 /// SNORD27 /// SNORD28 /// SNORD29 /// SNORD31 / Fold change vs veh, SNHG1 /// SNORD22 /// SNORD25 /// SNORD26 /// SNORD27 /// SNORD28 /// SNORD29 /// SNORD31 / Fold change (Aza/veh), C12orf56 (ProbeSet 11735607_a_at) / Fold change (ACY-1035/veh), C12orf56 (ProbeSet 11735607_a_at) / Fold change (Aza/veh), FGFR1OP (ProbeSet 11751329_s_at) / Fold change (ACY-1035/veh), FGFR1OP (ProbeSet 11751329_s_at) / Fold change (Aza/veh), VPS36 (ProbeSet 11739960_a_at) / Fold change (ACY-1035/veh), VPS36 (ProbeSet 11739960_a_at) / RFU SYPL1 (11715823_x_at) / Fold change /veh SYPL1 (11715823_x_at) / RFU IGFBP7 (11715501_s_at) / Fold change /veh IGFBP7 (11715501_s_at) / RFU REEP3 (11722064_at) / Fold change /veh REEP3 (11722064_at) / RFU IGLL1 (11728026_x_at) / Fold change /veh IGLL1 (11728026_x_at): dose or concentration left out as unconfirmed", "conditions": "ProbeSet 11731461_x_at; LIST D"}
{"molecule": "Nc1ncn([C@@H]2O[C@H](CO)[C@@H](O)[C@H]2O)c(=O)n1", "note": "[azacitidine]", "values": [{"measurement": "RFU, CPM", "value": 125.18, "unit": "RFU"}]}
